Laboratory results reported in patent US5410031A, “Nucleoside cotransporter protein cDNA” (The Regents of the University of California Office of …, priority 1992, dated 1995).

Assays:
[1] = tested on: SNST1c (chimeric Na+/nucleoside cotransporter SNST1); test: Uptake of radiolabelled substrates in Xenopus oocytes expressing SNST1c; type: cell-based, rabbit; conditions: for transport of radiolabelled substrate by SNST1c: Xenopus oocytes injected with SNST1c RNA
Description: (§1) Oocyte injections. Xenopus oocytes were dissected and injected, and transport was measured as described below. Stage V and VI oocytes (Dumont, J. Morphol. 136:153-180 (1972)) from Xenopus laevis (Xenopus One, Ann Arbor, Mich.) were dissected and defolliculated as described by Hediger et al., Proc. Natl. Acad. Sci. USA 84:2634-2637 (1987) and Coady et al., Arch. Biochem. Biophys. 265:73-81 (1990), both of which are incorporated by reference herein. Briefly, oocytes were hand-dissected from ovarian tissue of adult female Xenopus laevis. Individual oocytes were obtained by gentle agitation in Barth's solution (Silbernagl, Physiol. Rev. 68:912-1007 (1988)) 1.0% collagenase (to remove follicular cells) and 0.1% trypsin inhibitor for 60 min followed by a 30 to 60 min incubation in 100 mM K2 HP04, pH 6.5, 0.1% BSA (modified from Dumont, J. Morphol. 136:153-179 (1972)). Oocytes were maintained in Barth's solution at 18° C. After 16 to 24 hr, the healthy oocytes were injected with 50 nl of water or mRNA (0.2 to 1 mg/ml) and incubated in Barth's solution with gentamicin at 18° C. for another 3 to 8 days.
(§2) Na^+ /nucleoside transporter activity was assayed by measuring the Na^+ -dependent uptake by the chimeric construct, SNST1c. […] Because of the sequence similarity to SGLT1, it was hypothesized that the transport would be Na^+ -dependent. Therefore, the uptake of ^22 Na^+ in the presence of potential substrates was monitored.
(§3) Measurements were made of [^3 H] uridine uptake in oocytes expressing SNST1c (FIG. 4A and 4B). Uptakes were measured over 5 min in a buffer containing either 100 mM NaCl, choline chloride or LiCl as described by Coady et al., Arch. Biochem. Biophys. 283:130-134 (1990), incorporated by reference herein. [All of the solutions contained 2 mM KCL, 1 mM MgCl2, 1 mM CaCl2, 10 mM HEPES/Tris, pH 7.5 and either 100 mM NaCl (Na^+ transport buffer) or 100 mM choline-Cl (choline transport buffer). The uptake solutions contained radiolabeled substrate while the wash solutions contained nonradioactive substrate. Oocytes were injected with water as a control, or SNST1c cRNA (50 ng). Oocytes were preincubated for 30 min in substrate-free choline transport buffer when uptakes in Na^+ and choline were to be compared. Transport of substrate was assayed by placing 4-6 oocytes in 0.5 ml of radioactive uptake solution, preceded by a 30 min preincubation in a Na^+ -free (100 mM choline-Cl) solution when Na^+ -dependent transport was to be measured. Transport was stopped by washing the oocytes five times with 4 ml of ice-cold choline solution containing excess unlabeled substrate. The oocytes were individually dissolved in 1.0 ml of 10% SDS and assayed for radioactivity. All data are expressed as mean ±SD. FIG. 4A indicates cation dependence of 1 μM [^3 H]uridine uptake in oocytes expressing SNST1c 4 days post-injection. In addition, inhibition of 0.6 μM [^3 H] uridine uptake in oocytes by 1 mM nucleosides was determined (FIG. 4B). Uptakes were measured in Na^+ containing buffer (Coady et al., supra) Oocytes were injected with water as a control, or SNST1c cRNA (50 ng) .

[2] = tested on: SNST1c (expressed Na+/nucleoside cotransporter); test: Inhibition of [3H]uridine / radiolabeled nucleoside uptake in oocytes expressing SNST1c; type: cell-based, rabbit; conditions: for inhibition of [3H]uridine transport by SNST1c: 1 mM nucleoside, 0.6 μM [3H]uridine, Na+ containing buffer (FIG. 4B)
Description: as §3
Uptake of radiolabeled nucleosides into Xenopus oocytes was measured in the presence or absence of Na^+ as described above in Example 1, and in the presence and absence of 1 mM phloridzin (Sigma, St. Louis, Mo.). […]

[3] = tested on: Na+/glucose cotransporter protein; conditions: cited from earlier work
[4] = tested on: Na+/nucleoside cotransport in the kidney brush border; conditions: Lee et al. 1990; cited from earlier work
[5] = tested on: SNST1c (chimeric Na+/nucleoside cotransporter SNST1); test: 22Na+ uptake in the presence of potential substrates in oocytes expressing SNST1c; type: cell-based, rabbit; conditions: SNST1c-injected oocytes
Description: as §1, §2, §3

[6] = tested on: oocyte transporter (Na+/nucleoside cotransport in the oocyte membrane); test: Inhibition of endogenous Na+/nucleoside cotransport in the oocyte membrane; type: cell-based, Xenopus laevis; conditions: endogenous transport of the oocyte membrane
Description: as §3, with “Transport was stopped by washing the oocytes five times with 4 ml of ice-cold choline solution containing excess unlabeled substrate.” left out, “FIG. 4A indicates cation dependence of 1 μM [^3 H]uridine uptake in oocytes expressing SNST1c 4 days post-injection. In addition, inhibition of 0.6 μM [^3 H] uridine uptake in oocytes by 1 mM nucleosides was determined (FIG. 4B).” left out

[7] = tested on: Na+/glucose cotransporter SGLT1; conditions: SGLT1-injected oocytes
Description: Xenopus oocytes were dissected and injected, and transport was measured as described below. […] Briefly, oocytes were hand-dissected from ovarian tissue of adult female Xenopus laevis. […] Oocytes were maintained in Barth's solution at 18° C. After 16 to 24 hr, the healthy oocytes were injected with 50 nl of water or mRNA (0.2 to 1 mg/ml) and incubated in Barth's solution with gentamicin at 18° C. for another 3 to 8 days.
[All of the solutions contained 2 mM KCL, 1 mM MgCl2, 1 mM CaCl2, 10 mM HEPES/Tris, pH 7.5 and either 100 mM NaCl (Na^+ transport buffer) or 100 mM choline-Cl (choline transport buffer). The uptake solutions contained radiolabeled substrate while the wash solutions contained nonradioactive substrate. Oocytes were injected with water as a control, or SNST1c cRNA (50 ng). […] Transport of substrate was assayed by placing 4-6 oocytes in 0.5 ml of radioactive uptake solution, preceded by a 30 min preincubation in a Na^+ -free (100 mM choline-Cl) solution when Na^+ -dependent transport was to be measured. […] The oocytes were individually dissolved in 1.0 ml of 10% SDS and assayed for radioactivity. All data are expressed as mean ±SD. […] Uptakes were measured in Na^+ containing buffer (Coady et al., supra) Oocytes were injected with water as a control, or SNST1c cRNA (50 ng) .

[8] = tested on: SNST1c (chimeric Na+/nucleoside cotransporter SNST1); test: Uptake of radiolabelled substrates in Xenopus oocytes expressing SNST1c; type: cell-based, rabbit; conditions: oocytes printed as SGLT1c, n=6 oocytes

Molecule: 3-O-methylglucose
- transport of radiolabelled substrate by SNST1c [1]: none of these was transported

Molecule: O=c1ccn([C@H]2C[C@H](O)[C@@H](CO)O2)c(=O)[nH]1 [2-deoxyuridine]
- inhibition of [3H]uridine transport by SNST1c [2]: inhibited

Molecule: O=C(CCc1ccc(O)cc1)c1c(O)cc(O[C@@H]2O[C@H](CO)[C@@H](O)[C@H](O)[C@H]2O)cc1O [4' glycoside]
- activity as inhibitor of glucose transport ([3]; Diedrich 1990): inactive

Molecule: O=C(CCc1ccc(O)cc1)c1c(O)cc(O)cc1O[C@@H]1O[C@H](CO)[C@@H](O)[C@H](O)[C@H]1O [Phloridzin]
- IC50 ([3]; mammalian intestine and kidney, competitive inhibition, read-out: concentration for fifty percent inhibition of sodium dependent sugar transport): 5 µM
- inhibition of the expressed Na+/nucleoside cotransporter ([2]; 1 mM phloridzin, n=2, Xenopus oocytes): 87%
- inhibition of Na+/nucleoside cotransport in the kidney brush border [4]: inhibits

Molecule: Nc1ncnc2c1ncn2[C@@H]1O[C@H](CO)[C@@H](O)[C@H]1O [adenosine]
- inhibition of [3H]uridine transport by SNST1c [2]: inhibited

Molecule: C[C@H](N)C(=O)O [alanine]
- transport of radiolabelled substrate by SNST1c [1]: none of these was transported

Molecule: C[N+](C)(C)CC(=O)O [betaine]
- signal of 22Na+ uptake in the presence of potential substrate [5]: no signals

Molecule: O=C(O)CCCC[C@@H]1SC[C@@H]2NC(=O)N[C@@H]21 [biotin]
- transport of radiolabelled substrate by SNST1c [1]: none of these was transported

Molecule: C[C@H](CCC(=O)O)[C@H]1CC[C@H]2[C@@H]3[C@H](O)C[C@@H]4C[C@H](O)CC[C@]4(C)[C@H]3C[C@H](O)[C@]12C [cholate]
- signal of 22Na+ uptake in the presence of potential substrate [5]: no signals

Molecule: Nc1ccn([C@@H]2O[C@H](CO)[C@@H](O)[C@H]2O)c(=O)n1 [cytidine]
- inhibition of [3H]uridine transport by SNST1c [2]: inhibited

Molecule: Nc1ccn([C@H]2CC[C@@H](CO)O2)c(=O)n1 [dideoxycytidine]
- inhibition of the oocyte Na+/nucleoside transporter [6]: did not inhibit

Molecule: Nc1nc2c(ncn2[C@@H]2O[C@H](CO)[C@@H](O)[C@H]2O)c(=O)[nH]1 [guanosine]
- inhibition of [3H]uridine transport by SNST1c [2]: inhibited

Molecule: CC(O)C(=O)O (stereo not shown) [lactate]
- transport of radiolabelled substrate by SNST1c [1]: none of these was transported

Molecule: NCCCC[C@H](N)C(=O)O [lysine]
- transport of radiolabelled substrate by SNST1c [1]: none of these was transported

Molecule: CNC(C)(C)C(=O)O [methyl-aminoisobutyric acid]
- transport of radiolabelled substrate by SNST1c [1]: none of these was transported

Molecule: O[C@H]1[C@H](O)[C@@H](O)[C@H](O)[C@@H](O)[C@H]1O [myoinositol]
- signal of 22Na+ uptake in the presence of potential substrate [5]: no signals

Molecule: N[C@@H](Cc1ccccc1)C(=O)O [phenylalanine]
- transport of radiolabelled substrate by SNST1c [1]: none of these was transported

Molecule: O=C(O)[C@@H]1CCCN1 [proline]
- transport of radiolabelled substrate by SNST1c [1]: none of these was transported

Molecule: O=C(O)CCC(=O)O [succinate]
- transport of radiolabelled substrate by SNST1c [1]: none of these was transported

Molecule: NCCS(=O)(=O)O [taurine]
- transport of radiolabelled substrate by SNST1c [1]: none of these was transported

Molecule: Cc1ncc(C[n+]2csc(CCO)c2C)c(N)n1 [thiamine]
- signal of 22Na+ uptake in the presence of potential substrate [5]: no signals

Molecule: O=c1ccn([C@@H]2O[C@H](CO)[C@@H](O)[C@H]2O)c(=O)[nH]1 [uridine]
- 3H-uridine uptake ([1]; SNST1c-injected oocytes, n=5 oocytes): 722±108 fmol ^3 H-uridine/oocyte/hr
- transport of radiolabelled substrate by SNST1c [1]: transported
- 3H-uridine uptake ([7]; n=5 oocytes): 309±78 fmol ^3 H-uridine/oocyte/hr
- inhibition of [3H]uridine transport by SNST1c [2]: inhibited

Molecule: CO[C@H]1O[C@H](CO)[C@@H](O)[C@H](O)[C@H]1O [αMDG, α-methyl-D-glucopyranose]
- transport of radiolabelled substrate by SNST1c [1]: none of these was transported
- 14C-αMDG uptake ([7]; n=6 oocytes): 70±19 pmol ^14 C-αMDG/oocyte/hr
- 14C-αMDG uptake [8]: 0.5±0.1 pmol ^14 C-αMDG/oocyte/hr
- signal of 22Na+ uptake in the presence of potential substrate [5]: no signals
